Measurements as given in BindingDB's records for doi:10.1111/cbdd.12546 (Zhejiang University of Technology, 2015).

Target: Glycogen synthase kinase-3 beta (Homo sapiens, UniProt P49841)
Test: Kinase Assay

Chain of Glycogen synthase kinase-3 beta (P49841 whole entry): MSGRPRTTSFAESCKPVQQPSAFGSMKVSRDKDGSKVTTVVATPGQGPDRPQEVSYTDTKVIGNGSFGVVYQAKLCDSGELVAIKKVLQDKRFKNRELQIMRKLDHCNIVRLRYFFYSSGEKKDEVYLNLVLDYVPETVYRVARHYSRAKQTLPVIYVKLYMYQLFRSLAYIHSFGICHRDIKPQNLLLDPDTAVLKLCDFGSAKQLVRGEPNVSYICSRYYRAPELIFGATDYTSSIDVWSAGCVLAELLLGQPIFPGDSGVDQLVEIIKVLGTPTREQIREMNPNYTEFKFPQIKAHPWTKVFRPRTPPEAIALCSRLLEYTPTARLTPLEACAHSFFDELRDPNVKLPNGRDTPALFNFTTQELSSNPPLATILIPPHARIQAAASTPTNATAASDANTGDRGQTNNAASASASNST

IC50 [nM]	Structure (SMILES)
690	O=C1NC(=O)C(c2cn(CCCN3CCOCC3)c3ccccc23)=C1c1coc2ncccc12 [3-(Furo[2,3-b]pyridin-3-yl)-4-(1-(3-morpholinopropyl)-1H-indol-3-yl)-1H-pyrrole-2,5-dione (5r)]
570	CCCCn1cc(C2=C(c3coc4ncccc34)C(=O)NC2=O)c2ccccc21 [3-(1-Butyl-1H-indol-3-yl)-4-(furo[2,3-b]pyridin-3-yl)-1H-pyrrole-2,5-dione (5l)]
530	C=CCn1cc(C2=C(c3coc4ncccc34)C(=O)NC2=O)c2ccccc21 [3-(1-Allyl-1H-indol-3-yl)-4-(furo[2,3-b]pyridin-3-yl)-1H-pyrrole-2,5-dione (5k)]
210	O=C1NC(=O)C(c2cn(CCCn3ccnc3)c3ccccc23)=C1c1coc2ncccc12 [3-(1-(3-(1H-Imidazol-1-yl)propyl)-1H-indol-3-yl)-4-(furo[2,3-b]pyridin-3-yl)-1H-pyrrole-2,5-dione (5n)]
1310	COc1ccc2c(c1)c(C1=C(c3coc4ncccc34)C(=O)NC1=O)cn2C [3-(Furo[2,3-b]pyridin-3-yl)-4-(5-methoxy-1-methyl-1H-indol-3-yl)-1H-pyrrole-2,5-dione (5j)]
240	O=C1NC(=O)C(c2cn(CCCn3ccnc3)c3ccc(Cl)cc23)=C1c1coc2ncccc12 [3-(1-(3-(1H-Imidazol-1-yl)propyl)-5-chloro-1H-indol-3-yl)-4-(furo[2,3-b]pyridin-3-yl)-1H-pyrrole-2,5-dione (5p)]
280	Cn1cc(C2=C(c3coc4ncccc34)C(=O)NC2=O)c2ccccc21 [3-(Furo[2,3-b]pyridin-3-yl)-4-(1-methyl-1H-indol-3-yl)-1H-pyrrole-2,5-dione (5b)]
70	Cn1cc(C2=C(c3coc4ncccc34)C(=O)NC2=O)c2cc(Br)ccc21 [3-(5-Bromo-1-methyl-1H-indol-3-yl)-4-(furo[2,3-b]pyridin-3-yl)-1H-pyrrole-2,5-dione (5h)]
290	Cc1cccc2c(C3=C(c4coc5ncccc45)C(=O)NC3=O)cn(C)c12 [3-(1,7-dimethyl-1H-indol-3-yl)-4-(furo[2,3-b]pyridin-3-yl)-1H-pyrrole-2,5-dione (5c)]
310	O=C1NC(=O)C(c2cn(CCCO)c3ccccc23)=C1c1coc2ncccc12 [3-(Furo[2,3-b]pyridin-3-yl)-4-(1-(3-hydroxypropyl)-1H-indol-3-yl)-1H-pyrrole-2,5-dione (5q)]
390	Cn1cc(C2=C(c3coc4ncccc34)C(=O)NC2=O)c2cc(F)ccc21 [3-(5-Fluoro-1-methyl-1H-indol-3-yl)-4-(furo[2,3-b]pyridin-3-yl)-1H-pyrrole-2,5-dione (5d)]
1840	Cn1cc(C2=C(c3coc4ncccc34)C(=O)NC2=O)c2ccc(Cl)cc21 [3-(6-Chloro-1-methyl-1H-indol-3-yl)-4-(furo[2,3-b]pyridin-3-yl)-1H-pyrrole-2,5-dione (5g)]
170	Cn1cc(C2=C(c3coc4ncccc34)C(=O)NC2=O)c2cc(Cl)ccc21 [3-(5-Chloro-1-methyl-1H-indol-3-yl)-4-(furo[2,3-b]pyridin-3-yl)-1H-pyrrole-2,5-dione (5f)]
190	CC(C)n1cc(C2=C(c3coc4ncccc34)C(=O)NC2=O)c2ccccc21 [3-(Furo[2,3-b]pyridin-3-yl)-4-(1-isopropyl-1H-indol-3-yl)-1H-pyrrole-2,5-dione (5m)]
1780	O=C1NC(=O)C(c2coc3ncccc23)=C1c1c[nH]c2ccccc12 [3-(Furo[2,3-b]pyridin-3-yl)-4-(1H-indol-3-yl)-1H-pyrrole-2,5-dione (5a)]
1940	Cn1cc(C2=C(c3coc4ncccc34)C(=O)NC2=O)c2ccc(Br)cc21 [3-(6-Bromo-1-methyl-1H-indol-3-yl)-4-(furo[2,3-b]pyridin-3-yl)-1H-pyrrole-2,5-dione (5i)]
560	Cn1cc(C2=C(c3coc4ncccc34)C(=O)NC2=O)c2ccc(F)cc21 [3-(6-Fluoro-1-methyl-1H-indol-3-yl)-4-(furo[2,3-b]pyridin-3-yl)-1H-pyrrole-2,5-dione (5e)]
190	O=C1NC(=O)C(c2cn(CCCn3ccnc3)c3ccc(Br)cc23)=C1c1coc2ncccc12 [3-(1-(3-(1H-Imidazol-1-yl)propyl)-5-bromo-1H-indol-3-yl)-4-(furo[2,3-b]pyridin-3-yl)-1H-pyrrole-2,5-dione (5o)]
